Results published in PMC7470102, “Synthesis, anticancer evaluation and molecular docking studies of new benzimidazole- 1,3,4-oxadiazole derivatives as human topoisomerase types I poison” (Journal of Enzyme Inhibition and Medicinal Chemistry, 2020).

Experiments:
[1] = test system: A549 (lung carcinoma cell line); assay: MTT cytotoxicity assay, A549; type: cell-based; details: Homo sapiens, A549, MTT assay, read-out: IC50 against A549
Description: (§1) The anticancer activity of compounds 5a–5o were screened according to the MTT assays. The MTT assays were performed as previously described[32]^,[33]. Anticancer activity of final compounds was assessed against five different cancer cell lines A549 (lung carcinoma cell line), HeLa (cervical cell line), MCF-7 (human breast adenocarcinoma cell line), HepG2 (human liver carcinoma cell line) and C6 (rat glioma cell line) cell lines as well as NIH3T3 (mouse embryo fibroblast cell line). Doxorubicin and Hoechst 33342 were used as the reference drugs in the MTT assays.
(§2) The benzimidazole-1,3,4-oxadiazole derivatives (5a-5o) were tested their cytotoxic effects in vitro using five cancer cell line A549 (lung carcinoma cell line), HeLa (cervical cell line), MCF-7 (human breast adenocarcinoma cell line), HepG2 (human liver carcinoma cell line) and C6 (rat glioma cell line) cell lines as well as NIH3T3 (mouse embryo fibroblast cell line). Doxorubicin and Hoechst 33342 were used for this study as a reference drugs.

[2] = test system: MCF-7 (human breast adenocarcinoma cell line); assay: MTT cytotoxicity assay, MCF-7; type: cell-based; details: Homo sapiens, MCF7, MCF-7 cell line, read-out: IC50 against MCF-7
Description: as §1, §2

[3] = test system: C6 (rat glioma cell line); assay: MTT cytotoxicity assay, C6; type: cell-based; details: Rattus norvegicus, read-out: IC50 against C6
Description: as §1, §2

[4] = test system: HepG2 (human liver carcinoma cell line); assay: MTT cytotoxicity assay, HepG2; type: cell-based; details: Homo sapiens, read-out: IC50 against HepG2
Description: as §1, §2

[5] = test system: HeLa (cervical cell line); assay: MTT cytotoxicity assay, HeLa; type: cell-based; details: Homo sapiens, read-out: IC50 against HeLa
Description: as §1, §2

[6] = test system: NIH3T3 (mouse embryo fibroblast cell line); assay: MTT cytotoxicity assay, NIH3T3 healthy cells; type: cell-based; details: Mus musculus, read-out: IC50 against NIH3T3
Description: The anticancer activity of compounds 5a–5o were screened according to the MTT assays. The MTT assays were performed as previously described[32]^,[33]. Anticancer activity of final compounds was assessed against five different cancer cell lines A549 (lung carcinoma cell line), HeLa (cervical cell line), MCF-7 (human breast adenocarcinoma cell line), HepG2 (human liver carcinoma cell line) and C6 (rat glioma cell line) cell lines as well as NIH3T3 (mouse embryo fibroblast cell line). Doxorubicin and Hoechst 33342 were used as the reference drugs in the MTT assays. It is crucial that an anticancer agent affects the cancer cell line but having minimal or no side-effect on healthy cells. For this purpose, the cytotoxic effects of the active compounds on the NIH3T3 cell line were investigated (Table 2).

[7] = test system: MCF-7 cell line; assay: Flow cytometric analysis (Annexin V/PI), MCF-7; type: cell-based, human; details: MCF-7 cells
Description: Death pathway of the carcinogenic cell lines was detected by Annexin V-FITC Apoptosis Detection Kit (BD, Pharmingen) as reported previously described. […] FCS Express software was used to display the percent of normal and apoptotic cells at different stages. […] The experiments were carried out in triplicates.
Annexin V/PI staining on tested cancer cells treated with the active compounds was performed to investigate induction of apoptosis. […] According to the MTT assay, compound 5n for A549 cell line; compounds 5a, 5d, 5e, 5o for MCF-7 cell line; compound 5k for C6 cell line; compound 5a for HepG2 cell line; compounds 5b, 5l and 5n for HeLa cell line were selected for the flow cytometric analysis. Furthermore, flow cytometry studies were performed for reference drug doxorubicin. Flow cytometric analysis diagrams of tested compounds and doxorubicin at IC50/2, IC50, and 2xIC50 concentrations on cancer cells were presented in Figures 7–11.

[8] = target: T1, Topoisomerase I (Homo sapiens, UniProt P11387); assay: DNA topoisomerase I assay (relaxation of supercoiled plasmid DNA, agarose gel); type: biochemical; details: agarose gel electrophoresis, camptothecin positive control, Figure 12
T1 construct: purchased TopoGen TG1018-2
T1 sequence (P11387 1-765): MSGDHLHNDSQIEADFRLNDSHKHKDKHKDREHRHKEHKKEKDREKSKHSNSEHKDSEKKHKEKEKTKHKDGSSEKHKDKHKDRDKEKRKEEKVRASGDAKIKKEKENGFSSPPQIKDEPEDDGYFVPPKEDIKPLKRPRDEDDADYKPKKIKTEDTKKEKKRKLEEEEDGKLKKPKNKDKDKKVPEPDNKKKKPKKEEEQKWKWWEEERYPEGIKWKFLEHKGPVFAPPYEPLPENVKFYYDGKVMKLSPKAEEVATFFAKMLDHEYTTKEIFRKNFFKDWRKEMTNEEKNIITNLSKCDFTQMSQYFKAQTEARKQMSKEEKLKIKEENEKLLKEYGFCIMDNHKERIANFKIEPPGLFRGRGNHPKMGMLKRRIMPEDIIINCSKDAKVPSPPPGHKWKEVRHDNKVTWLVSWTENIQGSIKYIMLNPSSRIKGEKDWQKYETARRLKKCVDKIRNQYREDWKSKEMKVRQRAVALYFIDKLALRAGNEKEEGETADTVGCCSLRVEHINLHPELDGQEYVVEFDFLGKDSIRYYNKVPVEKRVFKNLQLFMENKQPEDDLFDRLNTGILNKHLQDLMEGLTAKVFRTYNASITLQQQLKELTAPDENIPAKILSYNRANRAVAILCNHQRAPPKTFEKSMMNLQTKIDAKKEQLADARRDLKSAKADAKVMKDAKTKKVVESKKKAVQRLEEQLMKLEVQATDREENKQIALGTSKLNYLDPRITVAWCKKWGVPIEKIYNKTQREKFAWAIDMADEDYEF
Description: The topoisomerase I inhibition activities of final compounds were measured as relaxation of supercoiled plasmid DNA using agarose gel electrophoresis and camptothecin was used as a positive control. The assay was carried out in a final volume of 20 µl reaction volume containing 2 µl of 10xTGS Buffer, 6 µl water, 2 µl supercoiled plasmid DNA, 2 µl test compound, 2 µl of Top1, 2 ul 10% SDS, 2 µl proteinase K, 2 µl DNA loading dye. After incubation of reaction mixtures at 37 °C for 30 min, electrophoresis was done on a 1% agarose gel at a potential 50 V for 75 min using 1xTAE buffer.
To determine whether the DNA intercalation properties of compounds 5a, 5b, 5d, 5e, 5k, 5l, 5n and 5o might result in Topo I inhibition, agarose gel electrophores is assay was performed to evaluate the Topo I inhibitory activity of them via agarose-gel electrophoresis and CPT was used as the positive control. The TopoGEN Topoisomerase I Drug Screening Kit were optimised and implemented to accomplish this goal.
In a previous studies, it was said that the compounds poisoning topoisomerase caused the formation of nick bands in such gel appearances, while the formation of Supercoiled bands was said to be caused by catalytic inhibitors that bound to either DNA or enzyme[40]^,[41].

| Structure (SMILES) | IC50 [1] | IC50 [2] | IC50 [3] | IC50 [4] | IC50 [5] | melting point | IC50 [6] | percentage of apoptosis (early + late apoptotic cells) [7] | Topo I inhibition activity [8] |
| --- | --- | --- | --- | --- | --- | --- | --- | --- | --- |
| COc1ccc(-c2nc3ccc(-c4nnc(SCC(=O)N5CCN(c6ccccn6)CC5)o4)cc3[nH]2)cc1 [5ı, 2-((5-(2-(4-Methoxyphenyl)-1H-benzo[d]imidazol-6-yl)-1,3,4-oxadiazol-2-yl)thio)-1–(4-(pyridin-2-yl)-piperazin-1-yl)-ethane-1-on] | ≥ 100 µM | ≥ 100 µM | ≥ 100 µM | ≥ 100 µM | ≥ 100 µM | 168.3 to 170.1 °C |  |  |  |
| CCOc1ccc(-c2nc3ccc(-c4nc5cc(N6CCN(C)CC6)ccc5[nH]4)cc3[nH]2)cc1 [Hoechst 33342, reference compound] |  | 2.4 ± 0.118 µM |  | 27.8 ± 1.19 µM | 0.306 ± 0.015 µM |  | 7.39 ± 0.269 µM |  |  |
| COc1ccc(-c2nc3ccc(-c4nnc(SCC(=O)N5CCN(C)CC5)o4)cc3[nH]2)cc1 [5f, 2-((5-(2-(4-Methoxyphenyl)-1H-benzo[d]imidazol-6-yl)-1,3,4-oxadiazol-2-yl)thio)-1–(4-methyl-piperazin-1-yl)-ethane-1-on] | ≥ 100 µM | ≥ 100 µM | ≥ 100 µM | ≥ 100 µM | ≥ 100 µM | 156.6 to 158.7 °C |  |  |  |
| CCN1CCN(C(=O)CSc2nnc(-c3ccc4nc(-c5ccc(OC)cc5)[nH]c4c3)o2)CC1 [5g, 2-((5-(2-(4-Methoxyphenyl)-1H-benzo[d]imidazol-6-yl)-1,3,4-oxadiazol-2-yl)thio)-1–(4-ethyl-piperazin-1-yl)-ethane-1-on] | ≥ 100 µM | ≥ 100 µM | ≥ 100 µM | ≥ 100 µM | ≥ 100 µM | 180.4 to 181.9 °C |  |  |  |
| O=C(CSc1nnc(-c2ccc3nc(-c4ccc(O)cc4)[nH]c3c2)o1)N1CCN(c2ccccn2)CC1 [5d, 2-((5-(2-(4-Hydroxyphenyl)-1H-benzo[d]imidazol-6-yl)-1,3,4-oxadiazol-2-yl)thio)-1-(4-(pyridin-2-yl)-piperazin-1-yl)-ethane-1-on] |  | 9.15 ± 0.391 µM | 38.9 ± 1.92 µM | ≥ 100 µM | ≥ 100 µM |  | 720.6 ± 5.03 µM | 22.3% | potent topo I inhibition activity |
| CCOc1ccc(-c2nc3ccc(-c4nnc(SCC(=O)N5CCN(c6ncccn6)CC5)o4)cc3[nH]2)cc1 [5o, 2-((5-(2-(4-Ethoxyphenyl)-1H-benzo[d]imidazol-6-yl)-1,3,4-oxadiazol-2-yl)thio)-1–(4-(pyrimidine-2-yl)-piperazin-1-yl)-ethane-1-on] |  | 6.44 ± 0.287 µM | 25 ± 1.24 µM | 59.4 ± 2.59 µM | ≥ 100 µM |  | 44.1 ± 2.1 µM | 8.7% | potent topo I inhibition activity |
| COc1ccc(-c2nc3ccc(-c4nnc(SCC(=O)N5CCN(c6ncccn6)CC5)o4)cc3[nH]2)cc1 [5j, 2-((5-(2-(4-Methoxyphenyl)-1H-benzo[d]imidazol-6-yl)-1,3,4-oxadiazol-2-yl)thio)-1–(4-(pyrimidin-2-yl)-piperazin-1-yl)-ethane-1-on] | ≥ 100 µM | ≥ 100 µM | ≥ 100 µM | ≥ 100 µM | ≥ 100 µM | 118.7 to 120.3 °C |  |  |  |
| COc1ccc(-c2nc3ccc(-c4nnc(SCC(=O)N5CCN(c6ccccc6)CC5)o4)cc3[nH]2)cc1 [5h, 2-((5-(2-(4-Methoxyphenyl)-1H-benzo[d]imidazol-6-yl)-1,3,4-oxadiazol-2-yl)thio)-1–(4-(phenyl)-piperazin-1-yl)-ethane-1-on] | ≥ 100 µM | ≥ 100 µM | ≥ 100 µM | ≥ 100 µM | ≥ 100 µM | 166.7 to 169.2 °C |  |  |  |
| O=C(CSc1nnc(-c2ccc3nc(-c4ccc(O)cc4)[nH]c3c2)o1)N1CCN(c2ccccc2)CC1 [5c, 2-((5–(2-(4-Hydroxyphenyl)-1H-benzo[d]imidazol-6-yl)-1,3,4-oxadiazol-2-yl)thio)-1–(4-(phenyl) -piperazin-1-yl) -ethane-1-on] | ≥ 100 µM | ≥ 100 µM | ≥ 100 µM | 21.9 ± 0.991 µM | 20.3 ± 1.1 µM | 271.1 to 273.4 °C | 44.56 ± 0.221 µM |  |  |
| CCOc1ccc(-c2nc3ccc(-c4nnc(SCC(=O)N5CCN(c6ccccc6)CC5)o4)cc3[nH]2)cc1 [5m, 2-((5-(2-(4-Ethoxyphenyl)-1H-benzo [d]imidazol-6-yl)-1,3,4-oxadiazol-2-yl)thio)-1–(4-(phenyl)-piperazin-1-yl)-ethane-1-on] | ≥ 100 µM | ≥ 100 µM | 32.2 ± 1.55 µM | ≥ 100 µM | ≥ 100 µM | 262.5 to 263.9 °C | 52.3 ± 2.51 µM |  |  |
